Assay results published in the NIST ThermoML archive (doi:10.1016/j.fluid.2017.05.008).
± gives the expanded uncertainty stated by the source.

Assay: an = ratio of the nth substance listed
Details: 298.15 K; for surface tension liquid-gas: Ring tensiometer; for viscosity: 101 kPa, Liquid, Concentric cylinders viscometry

OCCCCO [1,4-butanediol] + C[N+](C)(C)CCO.[Cl-]
surface tension liquid-gas (a1 = 3): 55.8 ± 0.9 mN/m
viscosity (a1 = 3): 94 ± 6 mPa·s

OCCCCCO [1,5-pentanediol] + C[N+](C)(C)CCO.[Cl-]
surface tension liquid-gas (a1 = 3.5): 47.5 ± 0.8 mN/m
viscosity (a1 = 3.5): 110 ± 7 mPa·s

C[N+](C)(C)CCO.[Cl-] [choline chloride] + OCC(O)CO
surface tension liquid-gas (a2 = 2): 68.7 ± 1.1 mN/m
viscosity (a2 = 2): 296 ± 32 mPa·s

C[N+](C)(C)CCO.[Cl-] [choline chloride] + OCCO
surface tension liquid-gas (a2 = 2): 56.5 ± 0.6 mN/m
viscosity (a2 = 2): 40 ± 2 mPa·s

O.O.O=C(O)C(=O)O [ethanedioic acid dihydrate] + C[N+](C)(C)CCO.[Cl-]
surface tension liquid-gas (a1 = 1): 60.8 ± 1 mN/m
viscosity (a1 = 1): 767 ± 140 mPa·s

NC(N)=O [urea] + C[N+](C)(C)CCO.[Cl-]
surface tension liquid-gas (a1 = 2): 71.6 ± 1.2 mN/m
viscosity (a1 = 2): 849 ± 150 mPa·s
